Data as given in patent US20190297889A1, “USE OF A DIFLUORO-(2-HYDROXYPROPYL)PYRIDINE COMPOUND AS A FUNGICIDE FOR CONTROL OF PHYTOPATHOGENIC FUNGI OF RICE” (Dow AgroSsciences LLC, priority 2016, published 2019).
Where two headings read alike, the source gives them in different places.

How the values were obtained:
Rhizoctonia solani = assay: Field assessment of Rhizoctonia solani (RHIZSO, sheath blight) in rice; assay type: in vivo; conditions: 2 sprays
Experimental: The experimental plots were inoculated with Rhizoctonia solani_2 days after the first application at growth stage BBCH 59 of rice.
Disease infection percentage was calculated as (lesion lengths)/(total sheath lengths)×100% on 6 plants per plot randomly. Sheath blight infection was assessed three times, 7 days after application A (DAAA) plus 7 and 14 DAAB. The disease infection was recorded following EPPO PP1/26 guideline prescriptions.

Cochliobolus miyabeanus = assay: Field assessment of Cochliobolus miyabeanus (COCHMI, brown spot) in rice; conditions: for Percent Control (AUDPC), Panicle: panicles; for Percent Control (AUDPC), Plot: whole plot foliage
Experimental: The applications were made as early curative treatments, with the first application coming at the vegetative stage (50 to 70 DAP; max tillering to booting). The treatments were part of an experimental trial designed as a randomized complete block with four replications and a plot of approximately 5×2 m.
Disease assessments were made every seven days until three weeks after the second application. Disease severity was recorded as a percentage of visual diseased foliage on whole plot and as a percentage of visual infection on the rice panicles. Area under the disease progress curve (AUDPC) was calculated for each plot using the sets of recorded severity data. Relative AUDPC (% control based on AUDPC) was calculated as percent of the nontreated control. Also included in the study is the effect on efficacy of the addition of two adjuvants at varied rates: Agnique BP-420 (50% w/w) at rates from 0.05% to 0.3%; and Agnique BP-420 (50% w/w) plus MSO (methylated seed oil) at rates from 0.25% to 0.75%.

Pyricularia oryzae = assay type: in vivo; conditions: 2 sprays, rice field
[1] = test system: Gaeumannomyces graminis var. graminis; assay: Field assessment of Gaeumannomyces graminis var. graminis (GAEUGR) in rice; assay type: in vivo
Text: The applications were made as preventative treatments, with no infection at the time of application. The first symptoms of […] were observed after three applications.

[2] = 100 g ai/ha, Adjuvant A (Agnique BP-420) 0.2% v/v
[3] = 150 g ai/ha, Adjuvant A (Agnique BP-420) 0.3% v/v
[4] = 125 g ai/ha, commercial standard

N#Cc1ccc(Oc2ccc(C(F)(F)C(O)(Cn3ncnc3S)c3ccc(F)cc3F)nc2)cc1 (stereo not drawn) [Compound I, 4-((6-(2-(2,4-difluorophenyl)-1,1-difluoro-2-hydroxy-3-(5-mercapto-1H-1,2,4-triazol-1-yl)propyl)pyridin-3-yl)oxy)benzonitrile]
Disease (% Control) RHIZSO, based on AUDPC (Rhizoctonia solani; 50 g ai/ha): D (1-25) | Disease (% Control) RHIZSO, based on AUDPC (Rhizoctonia solani; 100 g ai/ha): C (26-50) | Disease (% Control) RHIZSO, based on AUDPC (Rhizoctonia solani; 150 g ai/ha): C (26-50) | Disease (% Control) RHIZSO, based on AUDPC (Rhizoctonia solani; 200 g ai/ha): B (51-75) | % Control (AUDPC of visual infection on the plant) (Cochliobolus miyabeanus; 50 g ai/ha, Adjuvant A (Agnique BP-420) 0.05% v/v): B (51-75) | % Control (AUDPC of visual infection on the plant) (Cochliobolus miyabeanus; 50 g ai/ha, Adjuvant A (Agnique BP-420) 0.1% v/v): B (51-75) | % Control (AUDPC of visual infection on the plant) (Cochliobolus miyabeanus; 50 g ai/ha, Adjuvant A (Agnique BP-420) 0.15% v/v): B (51-75) | % Control (AUDPC of visual infection on the plant) (Cochliobolus miyabeanus; 50 g ai/ha, Adjuvant B (Agnique BP-420 + MSO) 0.25% v/v): B (51-75) | % Control (AUDPC of visual infection on the plant) (Cochliobolus miyabeanus; 50 g ai/ha, Adjuvant B (Agnique BP-420 + MSO) 0.5% v/v): B (51-75) | % Control (AUDPC of visual infection on the plant) (Cochliobolus miyabeanus; 50 g ai/ha, Adjuvant B (Agnique BP-420 + MSO) 0.75% v/v): B (51-75) | Percent Control (AUDPC), Panicle (Cochliobolus miyabeanus; 50 g ai/ha, […]): C (26-50) | Percent Control (AUDPC), Plot (Cochliobolus miyabeanus; 50 g ai/ha, […]): C (26-50) | % Control (AUDPC of visual infection on the plant) (Cochliobolus miyabeanus; 50 g ai/ha, adjuvant None): C (26-50) | Percent Control (AUDPC), Panicle (Cochliobolus miyabeanus; 75 g ai/ha, […]): C (26-50) | Percent Control (AUDPC), Plot (Cochliobolus miyabeanus; 75 g ai/ha, […]): C (26-50) | % Control (AUDPC of visual infection on the plant) (Cochliobolus miyabeanus; [2]): B (51-75) | Percent Control (AUDPC), Panicle (Cochliobolus miyabeanus; 100 g ai/ha, […]): C (26-50) | Percent Control (AUDPC), Plot (Cochliobolus miyabeanus; 100 g ai/ha, […]): C (26-50) | Percent Control (AUDPC), Panicle (Cochliobolus miyabeanus; 125 g ai/ha, […]): B (51-75) | Percent Control (AUDPC), Plot (Cochliobolus miyabeanus; 125 g ai/ha, […]): C (26-50) | % Control (AUDPC of visual infection on the plant) (Cochliobolus miyabeanus; [3]): A (76-100) | Percent Control (AUDPC), Panicle (Cochliobolus miyabeanus; 150 g ai/ha, […]): B (51-75) | Percent Control (AUDPC), Plot (Cochliobolus miyabeanus; 150 g ai/ha, […]): B (51-75) | Disease (% Control) PYRIOR, based on AUDPC (Pyricularia oryzae; 50 g ai/ha): C (26-50) | Disease (% Control) PYRIOR, based on AUDPC (Pyricularia oryzae; 100 g ai/ha): B (51-75) | Disease (% Control) PYRIOR, based on AUDPC (Pyricularia oryzae; 150 g ai/ha): A (76-100) | Disease (% Control) PYRIOR, based on AUDPC (Pyricularia oryzae; 200 g ai/ha): A (76-100) | % Control (AUDPC of visual infection on the plant) ([1]; 100 g ai/ha, Adjuvant A (Agnique BP-420) 0.1% v/v): B (51-75) | % Control (AUDPC of visual infection on the plant) [1, 2]: B (51-75) | % Control (AUDPC of visual infection on the plant) ([1]; 100 g ai/ha, Adjuvant A (Agnique BP-420) 0.3% v/v): B (51-75) | % Control (AUDPC of visual infection on the plant) ([1]; 100 g ai/ha, Adjuvant B (Agnique BP-420 + MSO) 0.5% v/v): B (51-75) | % Control (AUDPC of visual infection on the plant) ([1]; 100 g ai/ha, Adjuvant B (Agnique BP-420 + MSO) 1.0% v/v): B (51-75) | % Control (AUDPC of visual infection on the plant) ([1]; 100 g ai/ha, Adjuvant B (Agnique BP-420 + MSO) 1.5% v/v): B (51-75) | % Control (AUDPC of visual infection on the plant) ([1]; 100 g ai/ha, adjuvant None): C (26-50) | % Control (AUDPC of visual infection on the plant) [1, 3]: B (51-75) | % Control (AUDPC of visual infection on the plant) ([1]; 200 g ai/ha, Adjuvant A (Agnique BP-420) 0.4% v/v): A (76-100)

N#CC(CCc1ccc(Cl)cc1)(Cn1cncn1)c1ccccc1 (stereo not drawn) [Fenbuconazole, reference compound]
% Control (AUDPC of visual infection on the plant) ([1]; 144 g ai/ha, adjuvant Inex-A 0.15% v/v): B (51-75)

CCCC1COC(Cn2cncn2)(c2ccc(Cl)cc2Cl)O1 (stereo not drawn) [Propiconazole, reference compound]
Percent Control (AUDPC), Panicle (Cochliobolus miyabeanus; [4]): B (51-75) | Percent Control (AUDPC), Plot (Cochliobolus miyabeanus; [4]): B (51-75)
